# Reference: ChEMBL document CHEMBL1201862, “PubChem BioAssay data set” (2004)
# Activity calls are given as the source filed them.
# Key:
# [1] = A549 cell cytotoxicity, dose response, cytotoxicity control, plate reader, cherry-pick, antagonist series (AID 743412); format: functional, cell-based
# [2] = HepG2 cell cytotoxicity, dose response, cytotoxicity control, plate reader, cherry-pick, antagonist series (AID 743416); format: functional, cell-based
# [3] = MC4R antagonists, dose response, counter-screen for LGR2 antagonist project, cell-based, plate reader, cherry pick (AID 743444); format: functional;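 note: transfected HEK 293 cells stimulated with alpha-MSH peptide; potency of inhibitors of the alpha-MSH evoked signal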
# [4] = LGR2 antagonists, dose response, cell-based, HEK293, CRE-luciferase reporter, cherry pick, set 2 (AID 743343); format: functional;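 note: transfected cells were stimulated with diluted bursicon conditioned medium after compound addition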
# Kallikrein-7 = Kallikrein-7 (Homo sapiens, UniProt P49862); assay: Fluorescence Intensity-based biochemical primary high throughput dose response assay to identify activators of kallikrein-7 (K7) zymogen.
# cells [5] = assay: cells
# Major prion protein = Major prion protein (Homo sapiens, UniProt P04156); format: functional, cell-based
# [6] = P. falciparum ATP4 D1247Y mutant growth inhibitors, dose response, NITD609-resistant line, SYBR Green, dry powder (AID 1159571); format: functional, cell-based;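 note: parasites synchronized at ring stage by sorbitol before testing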
# [7] = cytotoxicity dependent on PAX8, dose response, cell-based, plate reader, dry powder (AID 743049); format: functional
# [8] = P. falciparum Dd2 growth inhibitors, dose response, SYBR Green, cherry-picked samples (AID 1159567); format: functional, cell-based
# [9] = PAX5 activity inhibitors, dose response, selectivity assay for PAX8 inhibitor project, cell-based, plate reader, dry powder samples (AID 743047); format: functional;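 note: HEK293 cells carrying a Pax5 driven CD19 promoter luciferase reporter; potency of inhibitors that lower reporter luminescence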
# [10] = cytotoxicity in COV362 ovarian cancer cells, dose response, cytotoxicity control for PAX8 inhibitor project, cell-based, plate reader, dry powder, SA12 (AID 743144); format: functional
# [11] = cytotoxicity in COV434 cells, dose response, cytotoxicity control for PAX8 inhibitor project, cell-based, plate reader, dry powder, SA7 (AID 743145); format: functional
# [12] = cytotoxicity in OVCAR4 cells, dose response, cytotoxicity control for PAX8 inhibitor project, cell-based, plate reader, dry powder, SA11 (AID 743150); format: functional; details: OVCAR-4
# [13] = P. falciparum 3D7-ScDHODH growth inhibitors, dose response, SYBR Green, dry powder samples (AID 1159570); format: functional, cell-based;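 note: parasite growth measured after 72 hours of compound exposure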
# [14] = P. falciparum Dd2 growth inhibitors, dose response, SYBR Green, dry powder samples (AID 1159566); format: functional, cell-based;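 note: potency for growth inhibition with lower SYBR green DNA signal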
# Paired box protein Pax-8 = Paired box protein Pax-8 (Homo sapiens, UniProt Q06710); assay: inhibitors of PAX8-driven TPO luciferase reporter, dose response, RMG-I cells, cherry-pick (AID 687027); format: functional, cell-based;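 note: luciferase reporter driven by Pax8 target thyroperoxidase promoter measured by SteadyGlo luminescence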
# [15] = PAX2 cell-based inhibition, dose response, selectivity assay for PAX8 inhibitor project, plate reader, dry powder samples (AID 743048); format: functional;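 note: HEK293 cells carrying a WT1 promoter luciferase reporter driven by expressed Pax2; potency is for inhibition of Pax2 driven reporter signal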
# [16] = IGROV1 ovarian cancer cell cytotoxicity, dose response, PAX8 inhibitor project, plate reader, dry powder samples (AID 743043); format: functional, cell-based; details: IGROV-1
# [17] = IOSE-T80 ovarian epithelial cell cytotoxicity, dose response, cytotoxicity control for PAX8 inhibitor project, plate reader, dry powder samples (AID 743045); format: functional, cell-based
# [18] = cytotoxicity in OVCAR8 ovarian cancer cells, dose response, PAX8 project, cell-based, plate reader, dry powder samples (AID 743197); format: functional; details: OVCAR-8
# [19] = NIH:OVCAR-3 ovarian cancer cell cytotoxicity, dose response, PAX8 inhibitor project, plate reader, dry powder samples (AID 743044); format: functional, cell-based
# [20] = non-specific cell cytotoxicity, dose response, cytotoxicity control for PAX8 inhibitor project, plate reader, dry powder samples (AID 743021); format: functional, cell-based
# [21] = T. cruzi growth inhibition in host cells, dose response, cell-based, plate reader, dry powder, set 2 (AID 652275); format: functional
# [22] = HepG2 cell cytotoxicity, dose response, cytotoxicity control, cherry-picks, set 5 (AID 1053118); format: functional, cell-based
# cells [23] = assay: cells; remark: listed apart in the source
# [24] = biological target: T1, Zinc finger protein mex-5 (Caenorhabditis elegans, UniProt Q9XUB2); assay: MEX-5/TCR-2 RNA interaction inhibitors, dose response, biochemical, C. elegans, fluorescence polarization (AID 1960)
# T1 sequence (Q9XUB2 whole entry): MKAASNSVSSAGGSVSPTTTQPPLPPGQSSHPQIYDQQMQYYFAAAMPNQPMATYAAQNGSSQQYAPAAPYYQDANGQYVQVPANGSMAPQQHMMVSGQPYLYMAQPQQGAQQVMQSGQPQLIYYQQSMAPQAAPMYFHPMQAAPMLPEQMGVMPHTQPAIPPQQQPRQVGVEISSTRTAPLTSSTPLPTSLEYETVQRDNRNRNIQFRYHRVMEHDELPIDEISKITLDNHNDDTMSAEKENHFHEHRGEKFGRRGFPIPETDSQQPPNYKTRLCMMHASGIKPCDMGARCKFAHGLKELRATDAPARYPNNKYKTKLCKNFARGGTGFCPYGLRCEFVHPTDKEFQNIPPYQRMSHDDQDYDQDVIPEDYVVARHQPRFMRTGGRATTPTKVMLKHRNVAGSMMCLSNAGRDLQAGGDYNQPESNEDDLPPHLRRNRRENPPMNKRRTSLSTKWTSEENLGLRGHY
# [25] = biological target: T2, Voltage-gated N-type calcium channel alpha-1B subunit/Amyloid beta A4 precursor protein-binding family A member 1 (Homo sapiens, UniProt Q00975+Q02410); format: protein assay
# Albumin = Albumin (Bos taurus, UniProt P02769); assay: Counterscreen for inhibitors of T-cell receptor (TCR)-CD3 interaction: Fluorescence-based biochemical high throughput dose response assay to identify inhibitors of T-cell receptor (TCR)-CD3 interaction using a TAMRA-labeled BSA probe.; format: functional
# [26] = biological target: T2, Voltage-gated N-type calcium channel alpha-1B subunit/Amyloid beta A4 precursor protein-binding family A member 1; format: protein assay; remark: listed apart in the source
# [27] = biological target: RNA-editing ligase 1, mitochondrial (Trypanosoma brucei brucei, UniProt P86926); assay: TbREL1 ligase inhibitors, dose response, biochemical, fluorescence, Trypanosoma brucei (AID 1117295); format: functional
# [28] = P. falciparum Dd2 growth inhibitors, dose response, SYBR Green, dry powder samples, set 9 (AID 1159568); format: functional, cell-based
# [29] = HepG2 cell cytotoxicity, dose response, cytotoxicity control, cherry-picked samples (AID 1159577); format: functional, cell-based
# [30] = HepG2 cell cytotoxicity, dose response, cytotoxicity control, plate reader, dry powder samples (AID 1159569); format: functional, cell-based;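 note: inhibitor potency with signal falling toward the positive control level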
compound,measurement,setting,value
COc1ccc2nc(-c3ccccn3)ccc2c1,AC50,[1],> 52 µM (inactive)
same,AC50,[2],29.3 µM (active)
same,AC50,[3],13.4 µM (active)
same,AC50,[4],9.32 µM (active)
C=C(C)Cn1c2ccc(NC(=O)NCCc3cccs3)cc2c(=O)n1C,EC50,Kallikrein-7,> 7.72 µM (active)
Cc1cc(C)c2nc(SC3CCOC3=O)cc(C)c2c1 (stereo not given),IC50,cells [5],> 138 µM (inactive)
same,IC50,Major prion protein,3.66 µM (active)
CCCC#Cc1ccc([C@H]2[C@@H](CO)N(C(=O)C3CCCCC3)[C@H]2C#N)cc1,AC50,[6],2.55 µM (active)
same,AC50,[7],12.2 µM (active)
same,AC50,[8],1.42 µM (active)
same,AC50,[9],19.2 µM (active)
same,AC50,[10],0.0864 nM (active)
same,AC50,[11],0.000367 µM (active)
same,AC50,[12],22.8 µM (active)
same,AC50,[13],0.996 µM (active)
same,AC50,[14],0.541 µM (active)
same,AC50,Paired box protein Pax-8,1.55 µM (active)
same,AC50,[15],26.7 µM (active)
COc1cccc(S(=O)(=O)N2C[C@@H]3N[C@H](C2)[C@@H]3c2ccc(/C=C/c3ccccc3)cc2)c1,AC50,[16],58 µM (active)
same,AC50,[17],36.1 µM (active)
same,AC50,Paired box protein Pax-8,9.43 µM (active)
same,AC50,[18],48.9 µM (active)
same,AC50,[19],40.8 µM (active)
same,AC50,[20],33.7 µM (active)
CN(C)C(=O)c1cccc(-c2ccc([C@H]3[C@H](CO)N4CCCCN(C(=O)C5CCC5)C[C@@H]34)cc2)c1,AC50,[21],0.296 µM (active)
C[C@H]1CN([C@@H](C)CO)C(=O)c2cc(NC(=O)CCCN(C)C)ccc2O[C@H]1CN(C)Cc1ccc(-c2ccccc2)cc1,AC50,[22],44.9 µM (active)
CCOC(=O)c1cc2c(=O)n3ccccc3nc2n(CCCOC)/c1=N\C(=O)c1ccncc1,AC50,cells [23],8.47 µM (active)
COc1ccc(C(=O)Nc2nnc(CC(=O)N/N=C/c3ccc(O)cc3O)s2)cc1,EC50,[24],> 300 µM (not active)
same,IC50,[25],2.33 µM (active)
same,IC50,Albumin,> 94.1 µM (inactive)
same,IC50,[26],19.8 µM (active)
COC(=O)C1=C(C)N(Cc2ccc(C(F)(F)F)cc2)C(NCc2ccccc2C(F)(F)F)=NC1c1ccc(F)cc1 (stereo not given),IC50,[27],> 96.6 µM (inactive)
C[C@@H]1CN([C@H](C)CO)C(=O)c2cc(N(C)C)ccc2O[C@@H](C)CCCCO[C@H]1CN(C)S(=O)(=O)c1ccc(F)cc1,AC50,[28],10.5 µM (active)
OC[C@@H]1Nc2ccc(C#Cc3ccc(F)cc3)cc2[C@H]2NCC[C@@H]12,AC50,[6],1.42 µM (active)
same,AC50,[8],2.36 µM (active)
same,AC50,[29],25.1 µM (active)
same,AC50,[13],1.15 µM (active)
same,AC50,[14],0.822 µM (active)
same,AC50,[30],32.6 µM (active)
COc1ccc2c3c(n(C)c2c1)[C@H](CO)N(Cc1ccc2c(c1)OCO2)CC31CN(C(=O)c2ccc3c(c2)OCO3)C1,AC50,[6],0.147 µM (active)
same,AC50,[8],0.54 µM (active)
same,AC50,[28],0.236 µM (active)
same,AC50,[13],0.141 µM (active)
same,AC50,[14],0.13 µM (active)
same,AC50,[30],> 100 µM (inactive)
